Measurements published in ChEMBL document CHEMBL1201862, “PubChem BioAssay data set” (2004).
Calls of active or inactive are those of the source.

Columns and labels:
[1] = Luminescence Cell-Based Dose Response HTS to Identify Inhibitors of 5'UTR Stem-Loop Driven Prion Protein mRNA Translation in H4 Neuroglioblastoma Cells. [Related pubchem assays: 1827 (Project Summary), 1813 (Primary HTS)]; assay type: functional
[2] = target: T1, Short transient receptor potential channel 4 (Mus musculus, UniProt Q9QUQ5); test: mouse TRPC4 channel activators, dose response, cell-based, HEK293 TRPC4/mu-opioid, Fluo-4 calcium (AID 434937); assay type: functional
T1 sequence (Q9QUQ5 whole entry): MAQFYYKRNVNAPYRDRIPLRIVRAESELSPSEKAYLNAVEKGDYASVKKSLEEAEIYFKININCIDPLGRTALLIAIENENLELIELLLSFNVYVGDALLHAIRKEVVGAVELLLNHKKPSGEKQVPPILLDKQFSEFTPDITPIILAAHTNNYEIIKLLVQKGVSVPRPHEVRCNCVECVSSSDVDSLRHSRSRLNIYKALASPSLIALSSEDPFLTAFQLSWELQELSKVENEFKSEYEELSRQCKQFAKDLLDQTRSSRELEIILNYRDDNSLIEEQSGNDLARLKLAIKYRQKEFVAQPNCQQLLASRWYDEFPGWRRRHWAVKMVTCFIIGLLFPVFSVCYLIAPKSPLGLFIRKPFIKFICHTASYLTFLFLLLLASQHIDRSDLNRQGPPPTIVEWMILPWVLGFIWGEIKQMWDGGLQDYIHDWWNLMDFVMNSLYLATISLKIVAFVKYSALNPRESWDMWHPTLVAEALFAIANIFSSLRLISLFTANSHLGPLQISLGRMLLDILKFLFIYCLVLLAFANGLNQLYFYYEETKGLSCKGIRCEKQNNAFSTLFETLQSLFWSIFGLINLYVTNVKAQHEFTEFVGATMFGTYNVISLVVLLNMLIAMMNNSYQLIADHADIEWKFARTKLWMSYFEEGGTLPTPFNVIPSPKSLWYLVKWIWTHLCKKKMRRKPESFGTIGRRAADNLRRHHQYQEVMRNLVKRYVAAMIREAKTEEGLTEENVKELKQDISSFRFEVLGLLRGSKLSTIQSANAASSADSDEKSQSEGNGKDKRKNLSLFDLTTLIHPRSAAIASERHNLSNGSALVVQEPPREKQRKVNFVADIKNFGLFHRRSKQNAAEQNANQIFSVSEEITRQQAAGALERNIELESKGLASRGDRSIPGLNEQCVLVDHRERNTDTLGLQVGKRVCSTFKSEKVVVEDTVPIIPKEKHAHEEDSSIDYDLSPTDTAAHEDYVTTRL

[3] = target: Homeodomain-interacting protein kinase 4 (Homo sapiens, UniProt Q8NE63); assay type: functional
[4] = target: Calcium/calmodulin-dependent protein kinase type 1 (Homo sapiens, UniProt Q14012); assay type: functional
[5] = target: Serine/threonine-protein kinase PLK3 (Homo sapiens, UniProt Q9H4B4); assay type: functional
[6] = target: Maternal embryonic leucine zipper kinase (Homo sapiens, UniProt Q14680); assay type: functional
[7] = target: Receptor tyrosine-protein kinase erbB-2 (Homo sapiens, UniProt P04626); test: Navigating the Kinome. Panel member name: ERBB2; assay type: functional
[8] = target: Glycogen synthase kinase-3 alpha (Homo sapiens, UniProt P49840); assay type: functional;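 also: GSK3A result taken from a broad kinome-wide kinase panel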
[9] = target: Tyrosine-protein kinase Lck (Homo sapiens, UniProt P06239); assay type: functional;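 also: lck was assayed as one member of a kinase panel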
Misshapen-like kinase 1 = Misshapen-like kinase 1 (Homo sapiens, UniProt Q8N4C8); assay type: functional;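 also: kinome panel screen with MINK as the panel member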
[10] = target: Protein kinase C zeta type (Homo sapiens, UniProt Q05513); assay type: functional;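 also: measured as one member of a broad kinase profiling panel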
[11] = target: Tyrosine-protein kinase JAK3 (Homo sapiens, UniProt P52333); assay type: functional
[12] = target: Vascular endothelial growth factor receptor 1 (Homo sapiens, UniProt P17948); assay type: functional;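 also: measured within a kinome-wide profiling panel, FLT1 as the panel member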
[13] = target: Serine/threonine-protein kinase Chk2 (Homo sapiens, UniProt O96017); assay type: functional;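 also: CHEK2 entry within a kinome-wide screening panel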
[14] = target: Serine/threonine-protein kinase N2 (Homo sapiens, UniProt Q16513); assay type: functional
[15] = target: Tyrosine-protein kinase Lyn (Homo sapiens, UniProt P07948); assay type: functional;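 also: lyn as one member of a kinase panel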
[16] = target: ALK tyrosine kinase receptor (Homo sapiens, UniProt Q9UM73); assay type: functional;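 also: ALK tested as one member of a kinase panel screen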
Focal adhesion kinase 1 = Focal adhesion kinase 1 (Homo sapiens, UniProt Q05397); assay type: functional;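 also: measured as one member of a kinome panel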
[17] = target: Mitogen-activated protein kinase kinase kinase kinase 4 (Homo sapiens, UniProt O95819); assay type: functional
Caspase-6 = target: T2, Caspase-6 (Homo sapiens, UniProt P55212); test: human caspase-6 inhibitors, dose response, biochemical, VEID-R110 fluorescence, cherry-pick (AID 720632)
T2 sequence (P55212 whole entry): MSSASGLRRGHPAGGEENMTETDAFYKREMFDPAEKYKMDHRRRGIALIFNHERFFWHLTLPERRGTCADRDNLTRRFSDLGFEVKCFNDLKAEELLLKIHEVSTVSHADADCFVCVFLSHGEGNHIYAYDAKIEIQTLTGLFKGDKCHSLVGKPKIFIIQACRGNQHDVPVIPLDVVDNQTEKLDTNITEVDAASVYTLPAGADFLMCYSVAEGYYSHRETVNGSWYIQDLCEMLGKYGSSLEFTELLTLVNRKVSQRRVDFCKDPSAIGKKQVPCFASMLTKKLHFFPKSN

INS1 = test: beta cell apoptosis inhibitors, cytokine rescue, dose response, luminescence, retest (AID 449756); assay type: functional, cell-based; conditions: Rattus norvegicus;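 also: cell death triggered by IL-1 beta plus TNF-alpha plus IFN-gamma mixture; protective hits raise ATP signal compared with cytokine alone wells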
[18] = target: T3, Sentrin-specific protease 8 (Homo sapiens, UniProt Q96LD8); assay type: functional;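 also: luminescence read-out of SENP8 inhibition, dose-response confirmation following an ultra-high-throughput screen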
T3 sequence (Q96LD8 whole entry): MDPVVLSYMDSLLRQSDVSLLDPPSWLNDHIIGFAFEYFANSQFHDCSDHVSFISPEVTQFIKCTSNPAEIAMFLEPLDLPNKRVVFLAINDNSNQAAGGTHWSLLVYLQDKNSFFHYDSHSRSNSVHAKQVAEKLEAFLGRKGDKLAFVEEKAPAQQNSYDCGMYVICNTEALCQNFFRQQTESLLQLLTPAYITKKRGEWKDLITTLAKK

SUMO-activating enzyme = SUMO-activating enzyme (Homo sapiens, UniProt Q9UBT2); test: inhibitors of in vitro SUMOylation cascade, primary screen, biochemical, HTRF, uHTS (AID 2006); assay type: protein-complex assay
Chain of SUMO-activating enzyme (Q9UBE0 whole entry): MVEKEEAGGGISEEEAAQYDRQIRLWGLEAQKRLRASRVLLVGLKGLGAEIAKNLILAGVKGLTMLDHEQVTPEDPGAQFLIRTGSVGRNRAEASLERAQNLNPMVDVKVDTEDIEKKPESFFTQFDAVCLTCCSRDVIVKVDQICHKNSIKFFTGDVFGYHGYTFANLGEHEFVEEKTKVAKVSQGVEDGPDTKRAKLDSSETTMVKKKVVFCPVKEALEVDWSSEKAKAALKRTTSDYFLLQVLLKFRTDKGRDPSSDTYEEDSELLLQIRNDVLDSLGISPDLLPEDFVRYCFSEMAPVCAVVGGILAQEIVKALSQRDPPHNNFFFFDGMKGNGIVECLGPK
Chain of SUMO-activating enzyme (Q9UBT2 whole entry): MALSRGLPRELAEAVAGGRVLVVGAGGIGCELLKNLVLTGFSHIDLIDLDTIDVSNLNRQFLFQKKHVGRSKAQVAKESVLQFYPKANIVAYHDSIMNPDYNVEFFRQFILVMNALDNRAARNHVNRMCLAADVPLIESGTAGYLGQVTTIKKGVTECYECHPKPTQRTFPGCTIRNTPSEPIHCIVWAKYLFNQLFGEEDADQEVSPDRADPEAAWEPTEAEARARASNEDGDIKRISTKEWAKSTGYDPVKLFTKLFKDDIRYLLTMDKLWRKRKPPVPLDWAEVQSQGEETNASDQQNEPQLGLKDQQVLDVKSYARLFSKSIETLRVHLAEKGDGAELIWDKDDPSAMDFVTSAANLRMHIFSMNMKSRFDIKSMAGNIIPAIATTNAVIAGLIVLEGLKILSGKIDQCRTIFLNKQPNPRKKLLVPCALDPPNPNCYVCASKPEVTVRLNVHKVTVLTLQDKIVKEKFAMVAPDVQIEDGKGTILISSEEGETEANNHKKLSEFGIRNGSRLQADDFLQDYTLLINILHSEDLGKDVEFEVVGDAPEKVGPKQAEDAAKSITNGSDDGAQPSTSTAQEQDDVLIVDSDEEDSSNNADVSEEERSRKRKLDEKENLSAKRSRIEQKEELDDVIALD

Chain of Serine/threonine-protein kinase N2 (Q16513 whole entry): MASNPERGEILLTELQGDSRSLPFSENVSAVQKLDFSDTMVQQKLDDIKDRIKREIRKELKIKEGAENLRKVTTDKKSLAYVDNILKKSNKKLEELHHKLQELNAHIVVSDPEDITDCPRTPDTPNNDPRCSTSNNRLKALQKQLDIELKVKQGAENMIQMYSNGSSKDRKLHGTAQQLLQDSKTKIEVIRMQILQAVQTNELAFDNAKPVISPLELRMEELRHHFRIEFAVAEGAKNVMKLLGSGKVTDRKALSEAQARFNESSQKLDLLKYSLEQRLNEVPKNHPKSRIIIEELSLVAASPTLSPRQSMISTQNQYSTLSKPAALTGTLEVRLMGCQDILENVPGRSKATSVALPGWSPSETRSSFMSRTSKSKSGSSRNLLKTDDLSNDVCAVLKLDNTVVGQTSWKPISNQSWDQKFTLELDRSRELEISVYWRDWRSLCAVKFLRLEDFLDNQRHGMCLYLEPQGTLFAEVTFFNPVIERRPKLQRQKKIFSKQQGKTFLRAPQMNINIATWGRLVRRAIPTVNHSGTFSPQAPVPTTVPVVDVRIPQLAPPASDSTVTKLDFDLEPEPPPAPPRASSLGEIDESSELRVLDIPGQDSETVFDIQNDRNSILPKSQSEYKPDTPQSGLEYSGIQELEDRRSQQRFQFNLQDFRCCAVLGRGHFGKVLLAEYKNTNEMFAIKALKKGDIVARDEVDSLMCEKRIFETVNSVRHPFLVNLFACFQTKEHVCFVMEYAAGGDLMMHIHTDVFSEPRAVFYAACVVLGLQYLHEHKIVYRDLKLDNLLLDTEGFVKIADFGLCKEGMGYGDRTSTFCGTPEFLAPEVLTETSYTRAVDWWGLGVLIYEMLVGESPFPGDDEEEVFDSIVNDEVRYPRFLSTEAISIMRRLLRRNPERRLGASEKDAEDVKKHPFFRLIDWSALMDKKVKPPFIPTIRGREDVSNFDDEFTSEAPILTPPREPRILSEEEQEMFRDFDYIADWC
Chain of Tyrosine-protein kinase JAK3 (P52333 whole entry): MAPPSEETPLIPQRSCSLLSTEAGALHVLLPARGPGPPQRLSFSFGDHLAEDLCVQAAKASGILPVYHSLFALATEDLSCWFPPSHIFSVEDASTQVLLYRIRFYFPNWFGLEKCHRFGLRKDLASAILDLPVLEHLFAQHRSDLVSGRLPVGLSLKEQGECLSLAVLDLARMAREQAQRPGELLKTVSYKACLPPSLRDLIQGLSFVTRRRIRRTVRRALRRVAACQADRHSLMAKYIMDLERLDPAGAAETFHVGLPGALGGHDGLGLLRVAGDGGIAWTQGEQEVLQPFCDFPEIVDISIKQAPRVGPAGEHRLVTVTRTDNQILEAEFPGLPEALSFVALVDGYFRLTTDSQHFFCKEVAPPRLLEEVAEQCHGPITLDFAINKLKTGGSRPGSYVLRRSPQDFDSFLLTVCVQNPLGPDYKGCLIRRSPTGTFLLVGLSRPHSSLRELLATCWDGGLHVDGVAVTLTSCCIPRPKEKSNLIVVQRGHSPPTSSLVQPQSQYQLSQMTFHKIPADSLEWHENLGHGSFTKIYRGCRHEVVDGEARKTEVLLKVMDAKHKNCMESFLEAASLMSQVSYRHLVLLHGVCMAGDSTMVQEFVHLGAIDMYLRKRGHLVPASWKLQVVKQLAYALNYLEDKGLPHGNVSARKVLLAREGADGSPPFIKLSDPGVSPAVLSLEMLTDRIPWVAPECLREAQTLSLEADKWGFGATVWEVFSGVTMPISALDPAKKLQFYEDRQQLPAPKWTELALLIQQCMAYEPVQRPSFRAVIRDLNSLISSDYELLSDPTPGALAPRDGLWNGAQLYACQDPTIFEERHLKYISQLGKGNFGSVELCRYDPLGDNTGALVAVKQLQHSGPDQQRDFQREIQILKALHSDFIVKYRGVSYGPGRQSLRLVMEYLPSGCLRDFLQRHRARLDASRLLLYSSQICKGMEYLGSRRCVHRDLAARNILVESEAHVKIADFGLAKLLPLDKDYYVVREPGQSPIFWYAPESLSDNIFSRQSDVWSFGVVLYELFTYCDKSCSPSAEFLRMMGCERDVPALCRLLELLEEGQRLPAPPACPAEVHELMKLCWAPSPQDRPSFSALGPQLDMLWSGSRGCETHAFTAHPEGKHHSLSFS
Chain of Receptor tyrosine-protein kinase erbB-2 (P04626 whole entry): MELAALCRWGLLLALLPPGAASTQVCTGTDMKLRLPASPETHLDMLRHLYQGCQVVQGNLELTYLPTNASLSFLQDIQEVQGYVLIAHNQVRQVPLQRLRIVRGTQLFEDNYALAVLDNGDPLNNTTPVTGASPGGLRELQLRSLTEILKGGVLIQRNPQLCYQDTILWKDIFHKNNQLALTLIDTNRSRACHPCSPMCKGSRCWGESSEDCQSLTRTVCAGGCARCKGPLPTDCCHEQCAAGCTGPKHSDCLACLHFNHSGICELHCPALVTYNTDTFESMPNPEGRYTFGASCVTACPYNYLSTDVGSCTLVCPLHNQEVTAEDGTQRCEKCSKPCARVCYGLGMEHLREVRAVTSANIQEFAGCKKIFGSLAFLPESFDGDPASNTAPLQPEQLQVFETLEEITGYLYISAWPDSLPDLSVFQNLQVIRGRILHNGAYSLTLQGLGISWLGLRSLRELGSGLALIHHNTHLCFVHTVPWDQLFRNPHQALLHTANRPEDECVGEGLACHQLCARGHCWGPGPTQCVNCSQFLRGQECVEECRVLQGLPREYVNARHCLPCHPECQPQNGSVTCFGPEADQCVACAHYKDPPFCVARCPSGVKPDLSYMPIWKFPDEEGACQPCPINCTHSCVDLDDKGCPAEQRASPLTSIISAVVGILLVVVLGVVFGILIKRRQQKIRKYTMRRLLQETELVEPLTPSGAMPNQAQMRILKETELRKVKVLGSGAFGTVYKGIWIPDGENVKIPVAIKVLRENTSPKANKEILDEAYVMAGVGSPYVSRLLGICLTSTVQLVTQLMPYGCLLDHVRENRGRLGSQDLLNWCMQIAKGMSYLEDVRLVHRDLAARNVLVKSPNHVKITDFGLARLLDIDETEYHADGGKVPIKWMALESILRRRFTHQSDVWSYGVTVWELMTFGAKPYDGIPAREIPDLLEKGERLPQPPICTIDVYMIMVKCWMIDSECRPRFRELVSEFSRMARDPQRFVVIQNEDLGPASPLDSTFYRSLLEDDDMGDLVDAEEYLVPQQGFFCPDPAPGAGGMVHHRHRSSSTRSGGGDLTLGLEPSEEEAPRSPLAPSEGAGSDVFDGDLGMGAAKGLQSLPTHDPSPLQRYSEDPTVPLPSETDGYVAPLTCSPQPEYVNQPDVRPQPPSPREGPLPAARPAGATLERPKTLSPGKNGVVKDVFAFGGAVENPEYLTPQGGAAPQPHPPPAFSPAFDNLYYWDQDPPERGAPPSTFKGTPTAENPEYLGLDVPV
Chain of Serine/threonine-protein kinase Chk2 (O96017 whole entry): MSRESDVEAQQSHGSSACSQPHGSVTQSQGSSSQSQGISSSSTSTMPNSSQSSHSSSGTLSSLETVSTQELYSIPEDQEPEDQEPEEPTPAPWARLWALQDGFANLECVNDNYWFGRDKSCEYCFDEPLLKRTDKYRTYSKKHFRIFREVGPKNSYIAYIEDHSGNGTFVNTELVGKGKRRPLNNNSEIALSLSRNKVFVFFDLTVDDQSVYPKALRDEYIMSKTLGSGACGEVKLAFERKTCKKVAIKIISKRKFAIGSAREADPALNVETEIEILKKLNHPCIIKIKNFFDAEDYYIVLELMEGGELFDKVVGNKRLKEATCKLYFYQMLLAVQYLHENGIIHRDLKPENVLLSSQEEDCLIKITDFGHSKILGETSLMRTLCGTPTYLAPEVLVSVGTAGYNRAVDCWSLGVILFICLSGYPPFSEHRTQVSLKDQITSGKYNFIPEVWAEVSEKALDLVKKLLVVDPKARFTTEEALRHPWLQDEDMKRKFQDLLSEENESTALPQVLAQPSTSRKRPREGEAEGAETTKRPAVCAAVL

CC[C@@H](C)[C@H](CNC)NC[C@@H](Cc1cccc2ccccc12)NCCc1cccc(C(F)(F)F)c1
active: EC50 [2] 9.44 µM
> 120 µM (not active): EC50 [1]

CC(C)(CO)CNc1nccc(-c2c(-c3ccc(F)cc3)nc3c(CC4CC4)nccn23)n1
inactive: Ki [3] > 7.94 µM | Ki [4] > 5.01 µM | Ki [5] > 7.94 µM | Ki [6] > 1.58 µM | Ki [7] > 1.58 µM | Ki [8] > 7.94 µM | Ki [9] > 2.51 µM | Ki [10] > 7.94 µM | Ki [11] > 1.58 µM | Ki [12] > 0.398 µM | Ki [13] > 5.01 µM | Ki [14] > 7.94 µM | Ki [15] > 1.58 µM | Ki [16] > 1.26 µM | Ki (Focal adhesion kinase 1) > 1.58 µM
active: Ki (Misshapen-like kinase 1) 3.16 µM | Ki [17] 3.98 µM

O=[N+]([O-])c1c(Nc2ccccn2)cc(Cl)c2nonc12
active: AC50 (Caspase-6) 1.06 µM | AC50 (INS1) 6.13 µM

Cc1ccc(C(=O)NC2(O)C(=O)c3ccccc3C2=O)cc1C
active: IC50 [18] 4.89 µM | IC50 (SUMO-activating enzyme) 5.71 µM
